“And” between values parts separate entries of the source, which are not always exact repeats. Identical values can stand only once.
Columns and labels:
[1] = Example 1 urinary pharmacokinetics after intranasal administration; assay type: in vivo, human; conditions: healthy subjects; single intranasal 160 mg cocaine HCl; urine 0-12 h; metabolites as cocaine equivalents
Description: (§1) A single dose of a pharmaceutical composition was administered to both nostrils using cottonoid pledgets. […] Each pledget absorbed approximately 1 mL of pharmaceutical composition (i.e., 40 mg cocaine hydrochloride). Two soaked pledgets were placed into each nasal cavity of the subject and against the anterior septum for 20 minutes; thus, a total dose of 160 mg of cocaine hydrochloride was administered.
Urine samples were collected pre-dose and at the following intervals from the start of intranasal application of the pharmaceutical composition: 0-2 hours, 2-4 hours, 4-8 hours, and 8-12 hours. […] A 25-μL aliquot of each urine sample was processed by liquid-liquid extraction.
Urinary pharmacokinetic parameters were analyzed using noncompartmental methods.

[2] = Example 1 single-dose plasma pharmacokinetics after intranasal administration; assay type: in vivo, human; conditions: healthy subjects; single intranasal 160 mg cocaine HCl; plasma, >12 h after dosing
Description: Single-dose plasma and urinary pharmacokinetics of the pharmaceutical composition following intranasal administration was characterized in this study. This was a single-dose study in 30 healthy volunteers. The objective of the study was to examine the systemic pharmacokinetics of the pharmaceutical composition following acute, topical intranasal administration.
as §1
Blood samples were collected pre-dose (30 minutes before pledget insertion), and 7.5, 15, 20, 30, 45, 60, 75, 90, and 105 minutes and 2, 3, 4, 6, 8, 10, and 12 hours from the start of application of the pharmaceutical composition.
The effect of gender on Cmax, Tmax, AUClast, AUCinf, and t1/2 was determined. The effects of age, body weight, and BMI on AUClast were determined.

[3] = Example 2 plasma pharmacokinetics, normal renal function vs severe renal impairment
[4] = normal renal function, single intranasal 160 mg cocaine HCl, plasma
[5] = severe renal impairment, single intranasal 160 mg cocaine HCl, plasma

SMILES: CN1[C@H]2CC[C@@H]1[C@@H](C(=O)O)[C@@H](OC(=O)c1ccccc1)C2 [BE, benzoylecgonine]
- Total Urinary Recovery (Geometric mean) [1]: 713 µg
- Total Urinary Recovery (Mean) [1]: 816 µg
- Total Urinary Recovery (Median) [1]: 769 µg
- Urinary Recovery (Geometric mean) [1]: 0.467 % dose
- Urinary Recovery (Mean) [1]: 0.534 % dose
- Urinary Recovery (Median) [1]: 0.504 % dose
- plasma level not exceeded (metabolite not detectable in plasma) [2]: ≤ 0.1 µg/mL
- AUC0→t (Geometric mean) [3, 4]: 0.5895 µg·h/mL
- AUC0→t (Max) [3, 4]: 2.126 µg·h/mL
- AUC0→t (Mean) [3, 4]: 0.7621 µg·h/mL
- AUC0→t (Median) [3, 4]: 0.616 µg·h/mL
- AUC0→t (Min) [3, 4]: 0.1674 µg·h/mL
- AUC0→∞ (Geometric mean) [3, 4]: 0.6392 µg·h/mL
- AUC0→∞ (Max) [3, 4]: 2.284 µg·h/mL
- AUC0→∞ (Mean) [3, 4]: 0.8238 µg·h/mL
- AUC0→∞ (Median) [3, 4]: 0.676 µg·h/mL
- AUC0→∞ (Min) [3, 4]: 0.1661 µg·h/mL
- Clast (Geometric mean) [3, 4]: 0.004 µg/mL and 0.00396 µg/mL
- Clast (Max) [3, 4]: 0.0136 µg/mL
- Clast (Mean) [3, 4]: 0.00508 µg/mL
- Clast (Median) [3, 4]: 0.00434 µg/mL
- Clast (Min) [3, 4]: 0.00132 µg/mL
- Cmax (Geometric mean) [3, 4]: 0.0409 µg/mL
- Cmax (Max) [3, 4]: 0.158 µg/mL
- Cmax (Mean) [3, 4]: 0.0557 µg/mL
- Cmax (Median) [3, 4]: 0.0421 µg/mL
- Cmax (Min) [3, 4]: 0.009 µg/mL
- Tlast (Geometric mean) [3, 4]: 32.0 h
- Tlast (Max) [3, 4]: 32.0 h
- Tlast (Mean) [3, 4]: 32.0 h
- Tlast (Median) [3, 4]: 32.0 h
- Tlast (Min) [3, 4]: 1920 min
- Tmax (Geometric mean) [3, 4]: 2.75 h
- Tmax (Max) [3, 4]: 6.00 h
- Tmax (Mean) [3, 4]: 3.22 h
- Tmax (Median) [3, 4]: 2.5 h
- Tmax (Min) [3, 4]: 75 min
- t1/2 (Geometric mean) [3, 4]: 8.429 h
- t1/2 (Max) [3, 4]: 9.79 h
- t1/2 (Mean) [3, 4]: 8.47 h
- t1/2 (Median) [3, 4]: 8.32 h
- t1/2 (Min) [3, 4]: 442 min
- geometric mean AUClast, fold higher than in normal subjects ([3]; severe renal impairment vs normal renal function): more than 3.5 fold
- AUC0→t (Geometric mean) [3, 5]: 2.091 µg·h/mL
- AUC0→t (Max) [3, 5]: 6.242 µg·h/mL
- AUC0→t (Mean) [3, 5]: 2.7336 µg·h/mL
- AUC0→t (Median) [3, 5]: 1.758 µg·h/mL
- AUC0→t (Min) [3, 5]: 0.6057 µg·h/mL
- Clast (Geometric mean) [3, 5]: 0.0413 µg/mL
- Clast (Max) [3, 5]: 0.133 µg/mL
- Clast (Mean) [3, 5]: 0.05436 µg/mL
- Clast (Median) [3, 5]: 0.0357 µg/mL
- Clast (Min) [3, 5]: 0.0145 µg/mL
- Cmax (Geometric mean) [3, 5]: 0.0905 µg/mL
- Cmax (Max) [3, 5]: 0.29 µg/mL
- Cmax (Mean) [3, 5]: 0.1204 µg/mL
- Cmax (Median) [3, 5]: 0.0758 µg/mL
- Cmax (Min) [3, 5]: 0.0237 µg/mL
- Tlast (Geometric mean) [3, 5]: 32.0 h
- Tlast (Max) [3, 5]: 32.0 h
- Tlast (Mean) [3, 5]: 32.0 h
- Tlast (Median) [3, 5]: 32.0 h
- Tlast (Min) [3, 5]: 1920 min
- Tmax (Geometric mean) [3, 5]: 6.13 h
- Tmax (Max) [3, 5]: 12.0 h
- Tmax (Mean) [3, 5]: 6.625 h
- Tmax (Median) [3, 5]: 6.0 h
- Tmax (Min) [3, 5]: 180 min
- t1/2 (Geometric mean) [3, 5]: 24.65 h
- t1/2 (Max) [3, 5]: 31.62 h
- t1/2 (Mean) [3, 5]: 24.97 h
- t1/2 (Median) [3, 5]: 24.0 h
- t1/2 (Min) [3, 5]: 1191 min

Source: patent publication US10413505B1, “Pharmaceutical compositions and methods of using the same” (priority 2017, dated 2019)
